# Data taken from patent US20240000872A1, “NOVEL BACTERIOPHAGE THAT LYSES ACINETOBACTER GENUS BACTERIA HAVING RESISTANCE TO ANTIBIOTICS” (priority 2020, published 2024).
# Test system: Acinetobacter baumannii strains
# Test: Antibiotic susceptibility test (CLSI disk diffusion test method, read per CLSI 2016)
# Format: cell-based
# Protocol: (§1) Strain identification was performed using a kit such as AT 32 GN system (bioMérieux, Marcy l'Etoile, France). […] In Table 2 below, S, I, and R are the results obtained by evaluating susceptibility to the antibacterial agents, in which ‘S’ means susceptible, ‘I’ means intermediate, and ‘R’ means resistant.
# as §1, with “as ATB” for “as AT”, “system (bioMédrieux,” for “system (bioMérieux,”, “Table 6” for “Table 2”
# as §1, with “as ATB” for “as AT”, “Table 10” for “Table 2”, “susceptible, T” for “susceptible, ‘I’”
compound,measurement,setting,value
"NCC[C@H](O)C(=O)N[C@@H]1C[C@H](N)[C@@H](O[C@H]2O[C@H](CN)[C@@H](O)[C@H](O)[C@H]2O)[C@H](O)[C@H]1O[C@H]1O[C@H](CO)[C@@H](O)[C@H](N)[C@H]1O [Amikacin, amikacin]",antibiotic susceptibility class,host strain YMC14/01/C29,R
same,antibiotic susceptibility class,host strain YMC14/01/IP122,R
same,antibiotic susceptibility class,host strain YMC14/01/L8,R
same,antibiotic susceptibility class,host strain YMC14/01/P31,R
same,antibiotic susceptibility class,host strain YMC14/01/P117,R
same,antibiotic susceptibility class,host strain YMC14/01/P224,R
same,antibiotic susceptibility class,host strain YMC14/01/P727,R
same,antibiotic susceptibility class,host strain YMC14/01/P728,R
same,antibiotic susceptibility class,host strain YMC14/01/R130,R
same,antibiotic susceptibility class,host strain YMC14/01/R160,R
same,antibiotic susceptibility class,host strain YMC14/01/R198,R
same,antibiotic susceptibility class,host strain YMC14/01/R257,S
same,antibiotic susceptibility class,host strain YMC14/01/R270,R
same,antibiotic susceptibility class,host strain YMC14/01/R324,R
same,antibiotic susceptibility class,host strain YMC14/01/R443,R
same,antibiotic susceptibility class,host strain YMC14/01/R451,R
same,antibiotic susceptibility class,host strain YMC14/01/R560,R
same,antibiotic susceptibility class,host strain YMC14/01/R617,R
same,antibiotic susceptibility class,host strain YMC14/01/R671,R
same,antibiotic susceptibility class,host strain YMC14/01/R732,R
same,antibiotic susceptibility class,host strain YMC14/01/R767,R
same,antibiotic susceptibility class,host strain YMC14/01/R904,R
same,antibiotic susceptibility class,host strain YMC14/01/R905,R
same,antibiotic susceptibility class,host strain YMC14/01/R921,S
same,antibiotic susceptibility class,host strain YMC14/01/R941,R
same,antibiotic susceptibility class,host strain YMC14/01/R958,R
same,antibiotic susceptibility class,host strain YMC14/01/R1006,R
same,antibiotic susceptibility class,host strain YMC14/01/R1199,R
same,antibiotic susceptibility class,host strain YMC14/01/R1659,R
same,antibiotic susceptibility class,host strain YMC14/01/R1722,R
same,antibiotic susceptibility class,host strain YMC14/01/R1752,R
same,antibiotic susceptibility class,host strain YMC14/01/R2429,R
same,antibiotic susceptibility class,host strain YMC14/01/R2572,R
same,antibiotic susceptibility class,host strain YMC14/01/R2855,R
same,antibiotic susceptibility class,host strain YMC14/01/R2945,R
same,antibiotic susceptibility class,host strain YMC14/01/R3007,R
same,antibiotic susceptibility class,host strain YMC14/01/R3129,R
same,antibiotic susceptibility class,host strain YMC14/01/R3317,R
same,antibiotic susceptibility class,host strain YMC14/01/R3474,R
same,antibiotic susceptibility class,host strain YMC14/01/R3574,R
same,antibiotic susceptibility class,host strain YMC14/01/U313,R
same,antibiotic susceptibility class,host strain YMC14/01/U318,R
same,antibiotic susceptibility class,host strain YMC14/02/L18,R
same,antibiotic susceptibility class,host strain YMC14/02/P47,R
same,antibiotic susceptibility class,host strain YMC14/02/R1860,S
same,antibiotic susceptibility class,host strain YMC14/02/R2417,R
same,antibiotic susceptibility class,host strain YMC14/02/R2599,S
same,antibiotic susceptibility class,host strain YMC14/02/R2668,R
same,antibiotic susceptibility class,host strain YMC14/02/R2758,R
same,antibiotic susceptibility class,host strain YMC14/02/R2781,R
same,antibiotic susceptibility class,host strain YMC14/02/R3106,R
same,antibiotic susceptibility class,host strain YMC14/02/R3419,R
same,antibiotic susceptibility class,host strain YMC14/02/U1607,S
same,antibiotic susceptibility class,host strain YMC14/03/L9,S
same,antibiotic susceptibility class,host strain YMC14/03/P471,S
same,antibiotic susceptibility class,host strain YMC14/03/R122,S
same,antibiotic susceptibility class,host strain YMC14/03/R217,R
same,antibiotic susceptibility class,host strain YMC14/03/R380,R
same,antibiotic susceptibility class,host strain YMC14/03/R618,S
same,antibiotic susceptibility class,host strain YMC14/03/R2144,R
same,antibiotic susceptibility class,host strain YMC14/03/U4616,R
same,antibiotic susceptibility class,host strain YMC14/04/R1078,S
same,antibiotic susceptibility class,host strain YMC14/04/R1080,S
same,antibiotic susceptibility S/I/R,host strain YMC14/06/R2359,R
same,susceptibility category (S/I/R),host strain YMC14/06/R2359,R
same,antibiotic susceptibility S/I/R,host strain YMC14/08/R1169,R
same,susceptibility category (S/I/R),host strain YMC14/08/R1169,R
same,antibiotic susceptibility S/I/R,host strain YMC14/08/T90,R
same,susceptibility category (S/I/R),host strain YMC14/08/T90,R
same,antibiotic susceptibility S/I/R,host strain YMC15/02/R436,R
same,susceptibility category (S/I/R),host strain YMC15/02/R436,R
same,antibiotic susceptibility S/I/R,host strain YMC15/02/T28,R
same,susceptibility category (S/I/R),host strain YMC15/02/T28,R
same,antibiotic susceptibility S/I/R,host strain YMC15/03/R1604,R
same,susceptibility category (S/I/R),host strain YMC15/03/R1604,R
same,antibiotic susceptibility S/I/R,host strain YMC15/09/R1869,R
same,susceptibility category (S/I/R),host strain YMC15/09/R1869,R
same,antibiotic susceptibility S/I/R,host strain YMC16/01/P11,R
same,susceptibility category (S/I/R),host strain YMC16/01/P11,R
same,antibiotic susceptibility S/I/R,host strain YMC16/01/R123,R
same,susceptibility category (S/I/R),host strain YMC16/01/R123,R
same,antibiotic susceptibility S/I/R,host strain YMC16/01/R198,R
same,susceptibility category (S/I/R),host strain YMC16/01/R198,R
same,antibiotic susceptibility S/I/R,host strain YMC16/01/R353,R
same,susceptibility category (S/I/R),host strain YMC16/01/R353,R
same,antibiotic susceptibility S/I/R,host strain YMC16/01/R397,R
same,susceptibility category (S/I/R),host strain YMC16/01/R397,R
same,antibiotic susceptibility S/I/R,host strain YMC16/01/R405,R
same,susceptibility category (S/I/R),host strain YMC16/01/R405,R
same,antibiotic susceptibility S/I/R,host strain YMC16/03/R4461,R
same,susceptibility category (S/I/R),host strain YMC16/03/R4461,R
same,antibiotic susceptibility S/I/R,host strain YMC16/07/R2512,R
same,susceptibility category (S/I/R),host strain YMC16/07/R2512,R
same,antibiotic susceptibility S/I/R,host strain YMC16/09/R2471,R
same,susceptibility category (S/I/R),host strain YMC16/09/R2471,R
same,antibiotic susceptibility S/I/R,host strain YMC16/10/R2537,R
same,susceptibility category (S/I/R),host strain YMC16/10/R2537,R
same,antibiotic susceptibility S/I/R,host strain YMC16/12/B11422,R
same,susceptibility category (S/I/R),host strain YMC16/12/B11422,R
same,antibiotic susceptibility S/I/R,host strain YMC16/12/B11449,R
same,susceptibility category (S/I/R),host strain YMC16/12/B11449,R
same,antibiotic susceptibility S/I/R,host strain YMC16/12/B13325,R
same,susceptibility category (S/I/R),host strain YMC16/12/B13325,R
same,antibiotic susceptibility S/I/R,host strain YMC16/12/P503,R
same,susceptibility category (S/I/R),host strain YMC16/12/P503,R
same,antibiotic susceptibility S/I/R,host strain YMC16/12/R4637,R
same,susceptibility category (S/I/R),host strain YMC16/12/R4637,R
same,antibiotic susceptibility S/I/R,host strain YMC17/01/B8053,R
same,susceptibility category (S/I/R),host strain YMC17/01/B8053,R
same,antibiotic susceptibility S/I/R,host strain YMC17/01/B10087,R
same,susceptibility category (S/I/R),host strain YMC17/01/B10087,R
same,antibiotic susceptibility S/I/R,host strain YMC17/01/B12075,S
same,susceptibility category (S/I/R),host strain YMC17/01/B12075,S
same,antibiotic susceptibility S/I/R,host strain YMC17/01/B13454,R
same,susceptibility category (S/I/R),host strain YMC17/01/B13454,R
same,antibiotic susceptibility S/I/R,host strain YMC17/01/P518,R
same,susceptibility category (S/I/R),host strain YMC17/01/P518,R
same,antibiotic susceptibility S/I/R,host strain YMC17/01/R2812,R
same,susceptibility category (S/I/R),host strain YMC17/01/R2812,R
same,antibiotic susceptibility S/I/R,host strain YMC17/02/B14,R
same,susceptibility category (S/I/R),host strain YMC17/02/B14,R
same,antibiotic susceptibility S/I/R,host strain YMC17/02/B87,S
same,susceptibility category (S/I/R),host strain YMC17/02/B87,S
same,antibiotic susceptibility S/I/R,host strain YMC17/02/B721,R
same,susceptibility category (S/I/R),host strain YMC17/02/B721,R
same,antibiotic susceptibility S/I/R,host strain YMC17/02/B4039,R
same,susceptibility category (S/I/R),host strain YMC17/02/B4039,R
same,antibiotic susceptibility S/I/R,host strain YMC17/02/B4520,R
same,susceptibility category (S/I/R),host strain YMC17/02/B4520,R
same,antibiotic susceptibility S/I/R,host strain YMC17/02/B4864,S
same,susceptibility category (S/I/R),host strain YMC17/02/B4864,S
same,antibiotic susceptibility S/I/R,host strain YMC17/02/B8414,R
same,susceptibility category (S/I/R),host strain YMC17/02/B8414,R
same,antibiotic susceptibility S/I/R,host strain YMC17/02/P523,S
same,susceptibility category (S/I/R),host strain YMC17/02/P523,S
same,antibiotic susceptibility S/I/R,host strain YMC17/02/R541,R
same,susceptibility category (S/I/R),host strain YMC17/02/R541,R
same,antibiotic susceptibility S/I/R,host strain YMC17/02/R2392,R
same,susceptibility category (S/I/R),host strain YMC17/02/R2392,R
same,antibiotic susceptibility S/I/R,host strain YMC17/03/B4730,R
same,susceptibility category (S/I/R),host strain YMC17/03/B4730,R
same,antibiotic susceptibility S/I/R,host strain YMC17/03/B5000,R
same,susceptibility category (S/I/R),host strain YMC17/03/B5000,R
same,antibiotic susceptibility S/I/R,host strain YMC17/03/P971,R
same,susceptibility category (S/I/R),host strain YMC17/03/P971,R
same,antibiotic susceptibility S/I/R,host strain YMC17/03/R348,R
same,susceptibility category (S/I/R),host strain YMC17/03/R348,R
same,antibiotic susceptibility S/I/R,host strain YMC17/03/R585,R
same,susceptibility category (S/I/R),host strain YMC17/03/R585,R
same,antibiotic susceptibility S/I/R,host strain YMC17/03/R1888,R
same,susceptibility category (S/I/R),host strain YMC17/03/R1888,R
same,antibiotic susceptibility S/I/R,host strain YMC17/03/R3279,R
same,susceptibility category (S/I/R),host strain YMC17/03/R3279,R
same,antibiotic susceptibility S/I/R,host strain YMC17/03/R4077,R
same,susceptibility category (S/I/R),host strain YMC17/03/R4077,R
same,antibiotic susceptibility S/I/R,host strain YMC17/03/R4607,R
same,susceptibility category (S/I/R),host strain YMC17/03/R4607,R
same,antibiotic susceptibility S/I/R,host strain YMC17/04/R488,R
same,susceptibility category (S/I/R),host strain YMC17/04/R488,R
same,antibiotic susceptibility S/I/R,host strain YMC17/04/R640,R
same,susceptibility category (S/I/R),host strain YMC17/04/R640,R
same,antibiotic susceptibility S/I/R,host strain YMC/17/05/R1095,R
same,susceptibility category (S/I/R),host strain YMC/17/05/R1095,R
